“Also recorded” adds a separate entry of the source. Read-outs that look alike come from different tables or passages of the source. Values belong to the compound of their own block, whether it stands above or below them.
Experiments:
CYP2C19 = CYP2C19 (Homo sapiens (Human), UniProt P33261); test: Extracellular cytochrome P450 inhibition (microsomes); format: in vitro ADME; details: mephenytoin 4′-hydroxylation
From the text: Final solvent concentrations were 1% (v/v) or less.

[1] = Physical and chemical stability of polymorphs (storage, humidity chamber); format: physicochemical; details: for XRPD pattern after one week stability study: 40° C. and 75% RH, one week in humidity chamber
[2] = Thermodynamic aqueous solubility by HPLC; format: physicochemical; details: water, 25° C.
Procedure: The suspension was equilibrated at 25° C. for 24 hours then the pH was measured. The suspension was then filtered through a glass fibre C filter into a 96 well plate. […] Quantitation was by HPLC with reference to a standard solution of approximately 0.1 mg.ml^−1 in DMSO. Different volumes of the standard, diluted and undiluted sample solutions were injected.
Analysis was performed on an Agilent HP1100 series system equipped with a diode array detector and using ChemStation software vB.02.01-SR1.

[3] = Gravimetric vapour sorption (GVS); format: physicochemical; details: for XRPD pattern after the GVS experiment: after full sorption/desorption cycle; for water adsorbed (GVS): at 90% RH
Procedure: Sorption isotherms were obtained using a Hiden IGASorp moisture sorption analyser, controlled by CFRSorp software. The sample temperature was maintained at 25° C. by a Huber re-circulating water bath. The humidity was controlled by mixing streams of dry and wet nitrogen, with a total flow rate of 250 ml. min^−1. The relative humidity was measured by a calibrated Vaisala RH probe (dynamic range of 0-95% RH), located near the sample. The weight change, (mass relaxation) of the sample as a function of % RH was constantly monitored by the microbalance (accuracy ±0.001 mg).
Typically 10-20 mg of sample was placed in a tared mesh stainless steel basket under ambient conditions. The sample was loaded and unloaded at 40% RH and 25° C. (typical room conditions).
A moisture sorption isotherm was performed as outlined below (2 scans giving 1 complete cycle). The standard isotherm was performed at 25° C. at 10% RH intervals over a 0-90% RH range.
The software uses a least squares minimisation procedure together with a model of the mass relaxation, to predict an asymptotic value. The measured mass relaxation value must be within 5% of that predicted by the software, before the next % RH value is selected. The minimum equilibration time was set to 1 hour and the maximum to 4 hours.

[4] = Oral dosing of amorphous phase A and Form C in rats; format: in vivo
[5] = Liquid formulations for oral solutions/suspensions; format: physicochemical; details: below pH values of about 9-10
Procedure: Values of pH reported were estimated based on pH indicating strips. […] Accordingly, provided in certain embodiments herein were formulations having a pH above about 9, above about 10 or of about 10. In certain embodiments, the formulation was buffered at a pH of about 10. All formulations prepared were sonicated for about 10 minutes.

[6] = system: whole blood ionophore-stimulated leukotriene LTB4; test: Phase I study: ex vivo ionophore-stimulated LTB4; format: in vivo, human; details: in vivo
From the text: Study Design: Single center, double-blind, randomized, placebo-controlled, single ascending dose followed by multiple ascending dose study.
Sample Size: (1) Single Dose Phase: eight (8) subjects (6 active, 2 placebo) per dose level; up to 5 dose levels are planned (a total of 40 subjects if all 5 dose levels are completed); and (2) Multiple Dose Phase: eight (8) subjects (6 active, 2 placebo) per dose level; up to 4 dose levels are planned (a total of 32 subjects if all 4 dose levels are completed).
Formulations: Compound 2 was supplied as an oral powder for reconstitution. Placebo solution matched. […] The placebo differed only in the absence of the active.
The following dosing cohorts were used:
Routes of Administration: All doses were administered orally with approximately 100 mL of water rinse. Subjects were fasted for at least 8 hours prior to dosing and for 2 hours after dosing. For BID dosing in the Multiple Dose Phase, when applicable, subjects were fasted for at least 2 hours prior to the second daily dose.
Plasma concentrations of Compound 1 were determined using a validated LC/MS method. Whole blood ionophore-stimulated leukotriene LTB4 and urinary LTE4 production were assayed by ELISA and mass spectrometry, respectively.
Analysis of Samples: Concentrations of Compound 1 was determined in plasma samples collected from subjects. Similarly, concentrations of LTB4 in plasma and urinary LTE4 were determined in blood and urine samples collected.

[7] = female, CD-1, mouse, in vivo, po, 250 mg/kg/day, 4 days
Procedure: Twenty-four hours following the final drug administration mice were placed into an enclosed Plexiglas chamber and exposed to CO2 for a period of 30-60 seconds or until breathing ceased. They were then removed subject to cervical dislocation and blood taken via a cardiac puncture. Mice were next placed in a supine position and a midline incision made. All organs were inspected and the livers removed by careful dissection. Liver weights were recorded as well as any gross abnormalities.

Sequence of CYP2C19 (P33261 whole entry): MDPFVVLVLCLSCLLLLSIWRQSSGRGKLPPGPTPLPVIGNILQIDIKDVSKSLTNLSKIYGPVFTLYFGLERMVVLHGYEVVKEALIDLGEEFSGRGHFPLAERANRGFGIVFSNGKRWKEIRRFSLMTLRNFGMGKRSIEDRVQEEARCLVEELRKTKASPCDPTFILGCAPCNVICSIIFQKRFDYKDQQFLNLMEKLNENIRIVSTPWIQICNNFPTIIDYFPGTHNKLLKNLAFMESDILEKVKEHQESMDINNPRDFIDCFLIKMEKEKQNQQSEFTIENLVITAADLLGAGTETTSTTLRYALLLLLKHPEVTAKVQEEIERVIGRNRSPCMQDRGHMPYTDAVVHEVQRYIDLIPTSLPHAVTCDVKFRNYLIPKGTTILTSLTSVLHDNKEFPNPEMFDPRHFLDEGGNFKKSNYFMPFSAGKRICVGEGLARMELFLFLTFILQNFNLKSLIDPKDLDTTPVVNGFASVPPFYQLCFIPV

physical and chemical stability [1]: physically and chemically stable
physical and chemical stability ([1]; 5° C., 25° C./60% RH and 40° C./75% RH for at least one month): physically and chemically stable
XRPD pattern after one week stability study ([1]; listed as polymorph Form C): remains unchanged
XRPD pattern after the GVS experiment ([3]; listed as polymorph Form C): No changes were observed
water adsorbed (GVS) [3]: < 9%
water adsorbed (GVS) ([3]; listed as polymorph Form C): 8.2%
plasma exposures after oral dosing [4]: equivalent plasma exposures
Structure (SMILES): CCOc1ccc(-c2ccc(Cn3c(CC(C)(C)C(=O)[O-])c(SC(C)(C)C)c4cc(OCc5ccc(C)cn5)ccc43)cc2)cn1.[Na+] [Form C, sodium 3-[3-(tert-butylsulfanyl)-1-[4-(6-ethoxy-pyridin-3-yl)benzyl]-5-(5-methyl-pyridin-2-yl-methoxy)-1H-indol-2-yl]-2,2-dimethylpropionate]
hygroscopicity [3]: non-hygroscopic; also recorded: nonhygroscopic
hygroscopicity ([3]; listed as polymorph Form C): significantly less hygroscopic than the amorphous material

physical and chemical stability [1]: physically and chemically stable
hygroscopicity [3]: hygroscopic
XRPD pattern after the GVS experiment ([3]; listed as Polymorph Form B): becomes almost totally amorphous
water adsorbed (GVS) [3]: more than 30%
water adsorbed (GVS) ([3]; listed as Polymorph Form B): more than 30%
hygroscopicity ([3]; listed as Polymorph Form B): hygroscopic
Structure (SMILES): CCOc1ccc(-c2ccc(Cn3c(CC(C)(C)C(=O)[O-])c(SC(C)(C)C)c4cc(OCc5ccc(C)cn5)ccc43)cc2)cn1.[Na+] [Solvated Form B, sodium 3-[3-(tert-butylsulfanyl)-1-[4-(6-ethoxy-pyridin-3-yl)benzyl]-5-(5-methyl-pyridin-2-yl-methoxy)-1H-indol-2-yl]-2,2-dimethylpropionate]

Liver weight [7]: 1.6 ± 0.2
liver weight change as compared to vehicle control [7]: 31.0%
Structure (SMILES): CC(c1cc2ccccc2s1)N(O)C(N)=O (centres unmarked) [Zileuton, zileuton, reference compound]
Liver weight (% body weight) [7]: 5.5 % body weight

Continued, compound first:

Structure (SMILES): CCC1(c2ccccc2)C(=O)NC(=O)N(Cc2ccccc2)C1=O (single isomer, unassigned; (-)) [(−)-N-3-benzyl-phenobarbital, reference compound]
IC50 (CYP2C19): 2800 nM

Structure (SMILES): CCOc1ccc(-c2ccc(Cn3c(CC(C)(C)C(=O)[O-])c(SC(C)(C)C)c4cc(OCc5ccc(C)cn5)ccc43)cc2)cn1.[Na+] [Amorphous Phase A, sodium 3-[3-(tert-butylsulfanyl)-1-[4-(6-ethoxy-pyridin-3-yl)benzyl]-5-(5-methyl-pyridin-2-yl-methoxy)-1H-indol-2-yl]-2,2-dimethylpropionate]
XRPD pattern after one week stability study [1]: remains amorphous
physical and chemical stability ([1]; listed as Amphorous Phase A): chemically stable
Concentration of filtrate ([2]; 24 hours): >10 mg/mL of free base
Appearance of mixture after equilibration for 24 hours ([2]; listed as Compound 2 Phase A): Suspension
pH of unfiltered saturated solution ([2]; listed as Compound 2 Phase A): 9.14
hygroscopicity [3]: hygroscopic
XRPD pattern after the GVS experiment [3]: No changes were observed
water adsorbed (GVS) [3]: more than 22%
water adsorbed (GVS) ([3]; listed as Amphorous Phase A): more than 20%
hygroscopicity ([3]; listed as Amphorous Phase A): hygroscopic
plasma exposures after oral dosing [4]: equivalent plasma exposures

Structure (SMILES): CCOc1ccc(-c2ccc(Cn3c(CC(C)(C)C(=O)O)c(SC(C)(C)C)c4cc(OCc5ccc(C)cn5)ccc43)cc2)cn1 [Compound 1, 3-[3-(tert-butylsulfanyl)-1-[4-(6-ethoxy-pyridin-3-yl)benzyl]-5-(5-methyl-pyridin-2-yl-methoxy)-1H-indol-2-yl]-2,2-dimethylpropanoic acid]
solubility in certain solvent systems [5]: sparingly soluble
plasma concentration at complete inhibition of ionophore-stimulated LTB4 production [6]: 1000 to 1500 ng/mL

— patent US8772495B2, “5-lipoxygenase-activating protein inhibitor” (Panmira Pharmaceuticals, LLC, priority 2008, dated 2014)
